Results as given in ChEMBL document CHEMBL5360532, “Current scenario of quinolone hybrids with potential antibacterial activity against ESKAPE pathogens” (Eur J Med Chem, 2023).
pIC50: −log10 of the molar value. In brackets after ≈: the same amount, converted by molar mass.

Legend:
Pseudomonas aeruginosa [1] = test: Antibacterial activity against Pseudomonas aeruginosa assessed as bacterial growth inhibition by broth microdilution assay; type: functional
Staphylococcus aureus [2] = test: Antibacterial activity against Staphylococcus aureus assessed as bacterial growth inhibition by broth microdilution assay; type: functional
Escherichia coli [3] = test: Antibacterial activity against Escherichia coli assessed as bacterial growth inhibition by broth microdilution assay; type: functional
Staphylococcus aureus [4] = test: Potency index, ratio of ampicillin MIC to test compound MIC for antimicrobial activity against Staphylococcus aureus assessed as bacterial growth inhibition by broth microdilution assay; type: functional
Escherichia coli [5] = test: Potency index, ratio of ampicillin MIC to test compound MIC for antimicrobial activity against Escherichia coli assessed as bacterial growth inhibition by broth microdilution assay; type: functional
Pseudomonas aeruginosa [6] = test: Potency index, ratio of ampicillin MIC to test compound MIC for antimicrobial activity against Pseudomonas aeruginosa assessed as bacterial growth inhibition by broth microdilution assay; type: functional
Staphylococcus aureus [7] = test: Antibacterial activity against ciprofloxacin resistant Staphylococcus aureus assessed as bacterial growth inhibition by broth microdilution assay; type: functional
[8] = tested on: Mycobacterium tuberculosis; test: Antimycobacterial activity against multidrug Mycobacterium tuberculosis assessed as bacterial growth inhibition by LJ slant assay; type: functional
Staphylococcus aureus [9] = test: Antibacterial activity against Staphylococcus aureus assessed as zone of inhibition at 50 mg/ml cup plate assay; type: functional; details: read-out: IZ
[10] = tested on: Mycobacterium tuberculosis; test: Antimycobacterial activity against Mycobacterium tuberculosis H37Rv assessed as bacterial growth inhibition by LJ slant assay; type: functional
Escherichia coli [11] = test: Antibacterial activity against Escherichia coli assessed as zone of inhibition at 50 mg/ml cup plate assay; type: functional; details: read-out: IZ
[12] = tested on: Mycobacterium tuberculosis; test: Antimycobacterial activity against extensive drug Mycobacterium tuberculosis assessed as bacterial growth inhibition by LJ slant assay; type: functional
[13] = tested on: Mycobacterium tuberculosis; test: Potency index, ratio of ciprofloxacin MIC to test compound MIC for antimycobacterial activity against Mycobacterium tuberculosis H37Rv assessed as bacterial growth inhibition by LJ slant assay; type: functional
Acinetobacter baumannii = test: Antibacterial activity against Acinetobacter baumannii assessed as bacterial growth inhibition by broth microdilution assay; type: functional
Klebsiella pneumoniae [14] = test: Antibacterial activity against Klebsiella pneumoniae assessed as bacterial growth inhibition by broth microdilution assay; type: functional
WRL68 = test: Anticancer activity against human WRL68 cell assessed as cell growth inhibition measured after 24 to 72 hrs by MTT assay; type: functional, cell-based
MCF7 = test: Anticancer activity against human MCF7 cell assessed as cell growth inhibition measured after 24 to 72 hrs by MTT assay; type: functional, cell-based
[15] = Anticancer activity against EAC cell assessed as cell growth inhibition measured after 24 to 72 hrs by MTT assay; type: functional, cell-based; details: Ehrlich
HT-29 = test: Anticancer activity against human HT-29 cell assessed as cell growth inhibition measured after 24 to 72 hrs by MTT assay; type: functional, cell-based
Escherichia coli [16] = test: Antibacterial activity against Escherichia coli ATCC 10536 assessed as bacterial growth inhibition measured after 24 to 48 hrs by agar dilution assay; type: functional; details: time 24-48 hrs
Pseudomonas aeruginosa [17] = test: Antibacterial activity against Pseudomonas aeruginosa ATCC 11632 assessed as bacterial growth inhibition measured after 24 to 48 hrs by agar dilution assay; type: functional; details: time 24-48 hrs
Staphylococcus aureus [18] = test: Antibacterial activity against methicillin resistant Staphylococcus aureus assessed as bacterial growth inhibition by two fold microdilution assay; type: functional
Klebsiella pneumoniae [19] = test: Antibacterial activity against Klebsiella pneumoniae assessed as bacterial growth inhibition by two fold microdilution assay; type: functional
Staphylococcus aureus [20] = test: Antibacterial activity against methicillin sensitive Staphylococcus aureus assessed as bacterial growth inhibition by two fold microdilution assay; type: functional
Escherichia coli [21] = test: Antibacterial activity against Escherichia coli assessed as bacterial growth inhibition by two fold microdilution assay; type: functional

CCn1cc(C(=O)NN2C(=O)/C(=C/C=C/c3ccccc3)SC2=S)c(=O)c2cc(F)ccc21
MIC (Pseudomonas aeruginosa [1]): < 1 mg/L
MIC (Staphylococcus aureus [2]): < 1 mg/L
MIC (Escherichia coli [3]): < 1 mg/L
Ratio (Staphylococcus aureus [4]): >10
Ratio (Escherichia coli [5]): >10
Ratio (Pseudomonas aeruginosa [6]): >10

CCCCC(=O)N(CCNCCNc1ccc(CN2CCN(c3cc4c(cc3F)CC(C(=O)O)=CN4C3CC3)CC2)cc1)CCN(CCN(CCN(CCN(CCN(CCN(CCN(CCN(CCN(CCN(CCN(CCN(CCN(CCN(CCN(CCN(CCN(CCN(CCN(CCN(CCN(CCN(CCN(CCN(CCN(CCN(CCN(CCN(CCN(CCNC(C)=O)C(C)=O)C(C)=O)C(C)=O)C(C)=O)C(C)=O)C(C)=O)C(C)=O)C(C)=O)C(C)=O)C(C)=O)C(C)=O)C(C)=O)C(C)=O)C(C)=O)C(=O)CCCC)C(=O)CCCC)C(=O)CCCC)C(=O)CCCC)C(=O)CCCC)C(=O)CCCC)C(=O)CCCC)C(=O)CCCC)C(=O)CCCC)C(=O)CCCC)C(=O)CCCC)C(=O)CCCC)C(=O)CCCC)C(=O)CCCC)C(=O)CCCC
MIC (Staphylococcus aureus [7]): 0.62 mg/L (≈ 0.164 µM)

O=c1c(-c2nnc(S)o2)cn(C2CC2)c2cc(N3CCNCC3)c(F)cc12
MIC [8]: 0.063 mg/L (≈ 0.163 µM)
zone of inhibition at 50000 µg/mL (Staphylococcus aureus [9]): 13 mm
MIC [10]: 0.063 mg/L (≈ 0.163 µM)
zone of inhibition at 50000 µg/mL (Escherichia coli [11]): 12 mm
MIC [12]: 0.063 mg/L (≈ 0.163 µM)
Ratio [13]: >=32

CCCCCC(=O)N(CCNCCNc1ccc(CN2CCN(c3cc4c(cc3F)CC(C(=O)O)=CN4C3CC3)CC2)cc1)CCN(CCN(CCN(CCN(CCN(CCN(CCN(CCN(CCN(CCN(CCN(CCN(CCN(CCN(CCN(CCN(CCN(CCN(CCN(CCN(CCN(CCN(CCN(CCN(CCN(CCN(CCN(CCN(CCN(CCN(CCNC(C)=O)C(C)=O)C(C)=O)C(C)=O)C(C)=O)C(C)=O)C(C)=O)C(C)=O)C(C)=O)C(C)=O)C(C)=O)C(C)=O)C(C)=O)C(C)=O)C(C)=O)C(C)=O)C(C)=O)C(C)=O)C(C)=O)C(C)=O)C(C)=O)C(C)=O)C(C)=O)C(C)=O)C(C)=O)C(C)=O)C(C)=O)C(C)=O)C(=O)CCCCC)C(=O)CCCCC)C(=O)CCCCC
MIC (Staphylococcus aureus [7]): 0.44 mg/L (≈ 0.129 µM)

Cc1[nH]c(C(=O)Nc2nc3ccc(NC(=O)CCN4CCN(c5cc6c(cc5F)c(=O)c(C(=O)O)cn6C5CC5)CC4)cc3s2)c(Cl)c1Cl
MIC (Pseudomonas aeruginosa [1]): 0.25 mg/L (≈ 0.344 µM)
MIC (Escherichia coli [3]): 0.004 mg/L (≈ 0.0055 µM)
MIC (Acinetobacter baumannii): 0.25 mg/L (≈ 0.344 µM)
MIC (Klebsiella pneumoniae [14]): 0.25 mg/L (≈ 0.344 µM)

O=C(CNc1ccc(-c2nc3ccc(Cl)c(Cl)c3s2)cc1)c1c(O)c2ccccc2n(-c2ccccc2)c1=O
pIC50 (WRL68): 6.40
pIC50 (MCF7): 6.40
pIC50 [15]: 6.40
pIC50 (HT-29): 6.40
MIC (Escherichia coli [16]): 0.5 mg/L (≈ 0.873 µM)
MIC (Pseudomonas aeruginosa [17]): 1 mg/L (≈ 1.75 µM)

O=C(O)c1cn([C@@H]2C[C@@H]2F)c2cc(N3CCN(Cn4nc(-c5ccncc5)n(Cc5ccccc5)c4=S)CC3)c(F)cc2c1=O
MIC (Staphylococcus aureus [18]): 0.5 mg/L (≈ 0.794 µM)
MIC (Klebsiella pneumoniae [19]): ≤ 0.003 mg/L
MIC (Staphylococcus aureus [20]): 0.5 mg/L (≈ 0.794 µM)
MIC (Escherichia coli [21]): ≤ 0.003 mg/L
